Laboratory results from patent US20030186943A1, “Substituted gamma-phenyl-delta-lactams and uses related thereto” (Inflazyme Pharmaceuticals Ltd., priority 1998, published 2003).

Tested on: collagen-induced arthritis (CIA) in the mouse
Test: Murine collagen-induced arthritis model
Format: in vivo
Experimental: Male DBA/1J mice (7-8 weeks of age) were immunized through a subcutaneous injection of 0.1 mL of a collagen-adjuvant emulsion (0.1 mg chick type II collagen in complete Freund's adjuvant) at the base of the tail. Mice were then randomly assigned to treatment or control groups in the following manner: Compound 43 (n=10); 45% 2-hydroxypropyl betacyclodextrin in 0.9% saline vehicle control (n-10); untreated (n=5) and dexamethasone positive control (n=5). After three weeks the animals were boosted with a second injection of chick type II collagen emulsified at 1.0 mg/mL in incomplete Freund's adjuvant. This second injection is required for reproducible induction of disease. In control animals, clinical signs of arthritis manifested as erythema and edema of the paws and tarsal/metatarsal joints usually appear within 1-2 weeks following the second immunization. Compounds were evaluated for their ability to delay the onset of or reduce the development of arthritis (prophylactic regime). Vehicle, dexamethasone positive control (0.075 mg/kg) and compound 43 (10 mg/kg) were administered twice daily (50 microliter per injection) by i.p. injection beginning on the day of the second collagen injection. The mice continued to receive doses until the last animal in the vehicle control group reached the seventh day of having established disease. In this particular case, this necessitated treatment for 25 days including the day of the booster injection.
The development of clinical arthritis (disease progression) was monitored daily after the second collagen injection. All four limbs were clinically evaluated by a trained observer unfamiliar (blinded) with the treatment group identity, and scored on a scale of 0-4 for disease severity (redness and swelling) according to the following criteria.
Inflammation was defined as any redness or swelling (enlargement) of any part of any paw. Established disease was defined as a qualitative score of paw inflammation of 2 or greater, that persists for at least 24 hours. In addition, paw widths for all four limbs were measured by a blinded observer daily using precision, constant tension calipers.
At the end of the study each animal was euthanized by an overdose of halothane anesthesia. Joints both distal to the knee and including the knee were dissected and analyzed by histology. Limb joints were fixed in 10% formalin buffer and decalcified in 10% formic acid for 48 hours, then processed for paraffin embedding. Serial sections (5-7 micrometer thick) were stained with haematoxylin and eosin (H & E). Histopathological alterations of the tarsal and metatarsal joints were graded “blind” by a certified pathologist and a score assigned based on a ranking system.
Mice were sacrificed on the 25th day after the second collagen injection corresponding to approximately the 10th day of established disease. All four paws from each animal in the study were removed, fixed and processed for blinded histopathological examination by an ACVP board certified veterinary pathologist. Joint pathology for each foot was classified on a scale of 0 to 4, with 0 being normal and 4 the most severely affected. Lesion grades were assigned based on the most severe lesion(s) present in the paw according to the following scale:
The individual paw scores were then summed to obtain a total for each animal with a maximum possible score for an animal being 16. Group values were obtained by averaging the individual animal scores.

[1] = 10 mg/kg i.p. twice daily, prophylactic, Day 25 after collagen boost

In the case of `COc1cc(CC2C[C@@H](c3ccc(OC)c(OC4CCCC4)c3)COC2=O)ccc1O` (stereo partly shown) [Compound 43], the “reduction of arthritis score compared to the vehicle group” value (10 mg/kg i.p. bid, day 25) is reported as 35%, the “reduction of histopathological score compared to the vehicle group” value (10 mg/kg i.p. bid, day 25) is reported as 29% and the “reduction of paw edema compared to the vehicle group” value (10 mg/kg i.p. bid, day 25) is reported as 42%. For the same molecule, the “Histopathological Score (range)” value (10 mg/kg i.p. twice daily, Day 25, maximum possible score 16) was 7.7 (1-15), the “Paw Arthritis Score” value [1] was 3.3 ± .64 and the “Paw Edema (1/100 in.)” value [1] was 0.052 ± .0051 1/100 in. The “rate of disease progression as assessed by paw score” value (10 mg/kg i.p., bid, last 10 days of the study) was “significantly reduced”.
